The compounds below were run against Tyrosine-protein kinase JAK2 (Homo sapiens, UniProt O60674) (assay: Inhibition of JAK2 (unknown origin)).
Tyrosine-protein kinase JAK2, sequence (O60674 whole entry): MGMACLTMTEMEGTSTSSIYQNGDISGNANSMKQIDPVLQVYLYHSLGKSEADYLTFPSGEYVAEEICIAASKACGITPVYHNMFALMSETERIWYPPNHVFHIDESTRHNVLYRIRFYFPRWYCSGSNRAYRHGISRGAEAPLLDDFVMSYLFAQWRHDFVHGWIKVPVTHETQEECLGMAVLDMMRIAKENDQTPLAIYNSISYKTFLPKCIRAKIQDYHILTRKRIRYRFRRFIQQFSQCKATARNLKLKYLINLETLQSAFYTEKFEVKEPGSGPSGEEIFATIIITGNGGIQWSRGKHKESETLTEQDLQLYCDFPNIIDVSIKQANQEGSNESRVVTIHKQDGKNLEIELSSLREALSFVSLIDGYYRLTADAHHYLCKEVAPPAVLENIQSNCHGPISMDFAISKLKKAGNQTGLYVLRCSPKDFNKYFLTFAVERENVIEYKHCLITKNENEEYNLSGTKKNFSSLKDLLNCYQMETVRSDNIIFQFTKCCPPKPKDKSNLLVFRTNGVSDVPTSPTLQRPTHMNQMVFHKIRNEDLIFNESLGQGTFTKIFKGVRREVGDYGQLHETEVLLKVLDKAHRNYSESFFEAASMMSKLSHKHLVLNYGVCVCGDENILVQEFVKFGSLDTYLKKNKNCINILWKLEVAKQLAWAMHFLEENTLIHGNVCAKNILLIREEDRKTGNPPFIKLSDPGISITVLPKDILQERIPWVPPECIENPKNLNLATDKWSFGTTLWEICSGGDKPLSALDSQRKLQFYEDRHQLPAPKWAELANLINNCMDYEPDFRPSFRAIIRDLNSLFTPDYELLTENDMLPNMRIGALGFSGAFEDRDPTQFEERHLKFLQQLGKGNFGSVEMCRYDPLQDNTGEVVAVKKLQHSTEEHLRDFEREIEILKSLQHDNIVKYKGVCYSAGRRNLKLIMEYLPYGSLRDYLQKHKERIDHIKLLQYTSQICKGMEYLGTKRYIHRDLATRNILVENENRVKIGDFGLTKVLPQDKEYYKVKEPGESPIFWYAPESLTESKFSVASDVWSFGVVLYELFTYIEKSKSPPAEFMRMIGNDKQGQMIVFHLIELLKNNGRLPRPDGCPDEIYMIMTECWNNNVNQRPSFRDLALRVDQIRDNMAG

| Compound | IC50 |
| --- | --- |
| COc1ccc(-c2cc(C(N)=O)c3[nH]c4ccc(C(=O)N5CCOCC5)cc4c3c2)cc1 | 2 nM |
| COc1cccc(-c2cc(C(N)=O)c3[nH]c4cc(C(=O)N5CCN(C)CC5)ccc4c3c2)c1 | 4.3 nM |
| CC(=O)Nc1cccc(-c2cc(C(N)=O)c3[nH]c4cc(C(=O)N5CCN(C)CC5)ccc4c3c2)c1 | 27 nM |
| CN1CCN(C(=O)c2ccc3c(c2)[nH]c2c(C(N)=O)cc(-c4ccc(Cl)c(Cl)c4)cc23)CC1 | 6.2 nM |
| NC(=O)c1cc(-c2cccc(Cl)c2)cc2c1[nH]c1ccc(C(=O)N3CCOCC3)cc12 | 1.7 nM |
| COc1ccc(-c2cc(C(N)=O)c3[nH]c4cc(C(=O)N5CCN(C)CC5)ccc4c3c2)cc1 | 5.5 nM |
| NC(=O)c1cc(-c2ccc(Cl)cc2)cc2c1[nH]c1ccc(C(=O)N3CCOCC3)cc12 | 2.6 nM |

What follows are compounds tested against Tyrosine-protein kinase BTK (Homo sapiens, UniProt Q06187) (assay: Inhibition of human recombinant BTK).
Tyrosine-protein kinase BTK, sequence (Q06187 whole entry): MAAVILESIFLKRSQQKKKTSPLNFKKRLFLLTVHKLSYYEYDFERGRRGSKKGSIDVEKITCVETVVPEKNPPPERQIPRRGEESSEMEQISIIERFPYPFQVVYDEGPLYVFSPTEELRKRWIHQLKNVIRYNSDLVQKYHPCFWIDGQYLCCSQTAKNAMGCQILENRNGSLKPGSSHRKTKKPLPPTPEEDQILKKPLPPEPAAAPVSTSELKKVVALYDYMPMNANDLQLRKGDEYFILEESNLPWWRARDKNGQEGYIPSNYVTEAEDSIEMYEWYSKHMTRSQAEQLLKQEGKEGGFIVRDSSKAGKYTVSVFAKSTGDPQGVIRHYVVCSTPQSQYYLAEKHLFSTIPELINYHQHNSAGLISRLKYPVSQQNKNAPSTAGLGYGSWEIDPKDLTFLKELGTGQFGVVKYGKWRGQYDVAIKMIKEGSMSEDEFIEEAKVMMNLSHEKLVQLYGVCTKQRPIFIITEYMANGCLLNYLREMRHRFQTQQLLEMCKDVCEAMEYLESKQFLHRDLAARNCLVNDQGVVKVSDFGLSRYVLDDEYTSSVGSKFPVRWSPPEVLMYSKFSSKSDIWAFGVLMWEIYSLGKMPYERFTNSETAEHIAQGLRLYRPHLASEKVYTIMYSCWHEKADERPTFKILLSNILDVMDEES

| Compound | IC50 |
| --- | --- |
| CN1CCN(C(=O)c2ccc3c(c2)[nH]c2c(C(N)=O)ccc(-c4cccc(Cl)c4Cl)c23)CC1 | 13 nM |
| CC(=O)Nc1cccc(-c2ccc(C(N)=O)c3[nH]c4cc(C(=O)N5CCN(C)CC5)ccc4c23)c1 | 30 nM |
| CN1CCN(C(=O)c2ccc3[nH]c4c(C(N)=O)cc(-c5ccc(Cl)cc5)cc4c3c2)CC1 | 110 nM |
| CN1CCN(C(=O)c2ccc3c(c2)[nH]c2c(C(N)=O)ccc(-c4cccc(Cl)c4)c23)CC1 | 38 nM |
| COc1cccc(-c2ccc(C(N)=O)c3[nH]c4ccc(C(=O)N5CCN(C)CC5)cc4c23)c1 | 28 nM |
| COc1ccc(-c2cc(C(N)=O)c3[nH]c4ccc(C(=O)N5CCOCC5)cc4c3c2)cc1 | 327 nM |
| CC(=O)Nc1ccc(-c2ccc(C(N)=O)c3[nH]c4cc(C(=O)N5CCN(C)CC5)ccc4c23)cc1 | 15 nM |
| CN1CCN(C(=O)c2ccc3c(c2)[nH]c2c(C(N)=O)ccc(-c4ccc(Oc5ccccc5)cc4)c23)CC1 | 127 nM |
| Cc1c(NC(=O)c2ccc(N(C)C)cc2)cccc1-c1ccc(C(N)=O)c2[nH]c3cc(C(=O)N4CCN(C)CC4)ccc3c12 | 3.5 nM |
| COc1cccc(-c2cc(C(N)=O)c3[nH]c4cc(C(=O)N5CCN(C)CC5)ccc4c3c2)c1 | 404 nM |
| CN1CCN(C(=O)c2ccc3c(c2)[nH]c2c(C(N)=O)ccc(-c4cccc(F)c4F)c23)CC1 | 6.9 nM |
| CC(=O)Nc1ccc(-c2ccc(C(N)=O)c3[nH]c4ccc(C(=O)N5CCN(C)CC5)cc4c23)cc1 | 39 nM |
| COc1ccccc1-c1ccc(C(N)=O)c2[nH]c3cc(C(=O)N4CCN(C)CC4)ccc3c12 | 144 nM |
| CN1CCN(C(=O)c2ccc3c(c2)[nH]c2c(C(N)=O)ccc(-c4cccc(NC(=O)c5ccc(F)cc5)c4F)c23)CC1 | 9.4 nM |
| Cc1c(NC(=O)c2ccc(C(C)(C)C)cc2)cccc1-c1ccc(C(N)=O)c2[nH]c3cc(C(=O)N4CCN(C)CC4)ccc3c12 | 12 nM |
| CC(=O)Nc1cccc(-c2cc(C(N)=O)c3[nH]c4cc(C(=O)N5CCN(C)CC5)ccc4c3c2)c1 | 379 nM |
| CN1CCN(C(=O)c2ccc3c(c2)[nH]c2c(C(N)=O)cc(-c4ccc(Cl)c(Cl)c4)cc23)CC1 | 812 nM |
| COc1ccc(-c2ccc(C(N)=O)c3[nH]c4cc(C(=O)N5CCN(C)CC5)ccc4c23)cc1 | 55 nM |
| COc1cccc(-c2cc(C(N)=O)c3[nH]c4ccc(C(=O)N5CCOCC5)cc4c3c2)c1 | 360 nM |
| CN1CCN(C(=O)c2ccc3c(c2)[nH]c2c(C(N)=O)ccc(-c4ccc(Cl)c(Cl)c4)c23)CC1 | 101 nM |

| Compound | IC50 |
| --- | --- |
| COc1ccc(-c2ccc(C(N)=O)c3[nH]c4ccc(C(=O)N5CCN(C)CC5)cc4c23)cc1 | 29 nM |
| NC(=O)c1cc(-c2cccc(Cl)c2)cc2c1[nH]c1ccc(C(=O)N3CCOCC3)cc12 | 189 nM |
| CN1CCN(C(=O)c2ccc3c(c2)[nH]c2c(C(N)=O)ccc(-c4ccc(C(C)(C)C)cc4)c23)CC1 | 103 nM |
| CC(=O)Nc1cccc(-c2ccc(C(N)=O)c3[nH]c4ccc(C(=O)N5CCN(C)CC5)cc4c23)c1 | 88 nM |
| Cc1c(NC(=O)c2ccccc2)cccc1-c1ccc(C(N)=O)c2[nH]c3cc(C(=O)N4CCN(C)CC4)ccc3c12 | 7.2 nM |
| CN1CCN(C(=O)c2ccc3c(c2)[nH]c2c(C(N)=O)ccc(-c4ccc(Cl)cc4)c23)CC1 | 59 nM |
| CN1CCN(C(=O)c2ccc3c(c2)[nH]c2c(C(N)=O)ccc(-c4cccc(NC(=O)c5ccc(F)cc5)c4)c23)CC1 | 39 nM |
| CN1CCN(C(=O)c2ccc3c(c2)[nH]c2c(C(N)=O)ccc(-c4c(F)cccc4F)c23)CC1 | 12 nM |
| CN1CCN(C(=O)c2ccc3c(c2)[nH]c2c(C(N)=O)ccc(-c4ccc(F)cc4F)c23)CC1 | 22 nM |
| CNC(=O)c1ccc(-c2ccc(C(N)=O)c3[nH]c4cc(C(=O)N5CCN(C)CC5)ccc4c23)cc1 | 44 nM |
| Cc1c(N)cccc1-c1ccc(C(N)=O)c2[nH]c3cc(C(=O)N4CCN(C)CC4)ccc3c12 | 19 nM |
| COc1ccc(-c2cc(C(N)=O)c3[nH]c4cc(C(=O)N5CCN(C)CC5)ccc4c3c2)cc1 | 436 nM |
| NC(=O)c1cc(-c2ccc(Cl)c(Cl)c2)cc2c1[nH]c1ccc(C(=O)N3CCOCC3)cc12 | 461 nM |
| CNC(=O)c1cccc(-c2ccc(C(N)=O)c3[nH]c4cc(C(=O)N5CCN(C)CC5)ccc4c23)c1 | 71 nM |
| Cc1c(NC(=O)c2ccc(F)cc2)cccc1-c1ccc(C(N)=O)c2[nH]c3cc(C(=O)N4CCN(C)CC4)ccc3c12 | 3.8 nM |
| NC(=O)c1cc(-c2ccc(Cl)cc2)cc2c1[nH]c1ccc(C(=O)N3CCOCC3)cc12 | 308 nM |
| Cc1c(Cl)cccc1-c1ccc(C(N)=O)c2[nH]c3cc(C(=O)N4CCN(C)CC4)ccc3c12 | 32 nM |
| Cc1ccccc1-c1ccc(C(N)=O)c2[nH]c3cc(C(=O)N4CCN(C)CC4)ccc3c12 | 24 nM |
| COc1cccc(-c2ccc(C(N)=O)c3[nH]c4cc(C(=O)N5CCN(C)CC5)ccc4c23)c1 | 32 nM |

From ChEMBL document CHEMBL3621099, “Design and synthesis of carbazole carboxamides as promising inhibitors of Bruton's tyrosine kinase (BTK) and Janus kinase 2 (JAK2)” (Bioorg Med Chem Lett, 2015)
